According to ChEMBL document CHEMBL1136591, “Novel N1-(benzyl)cinnamamidine derived NR2B subtype-selective NMDA receptor antagonists” (Bioorg Med Chem Lett, 2003):

Columns and labels:
[1] = molecular target: T1, Glutamate NMDA receptor; GRIN1/GRIN2B (Homo sapiens, UniProt Q05586+Q13224); experiment: Displacement of [3H]ifenprodil binding to recombinant human NR1a/NR2B receptors expressed in L(tk-) cells; format: cell-based
[2] = molecular target: T1, Glutamate NMDA receptor; GRIN1/GRIN2B; experiment: Inhibition of the response to glutamate/glycine in NR1a/NR2B expressing cells; format: functional, cell-based
[3] = tested on: Glutamate NMDA receptor GRIN1/GRIN2A (Homo sapiens); experiment: Inhibition of the response to glutamate/glycine in NR1a/NR2A expressing cells (No effect uM)

T1 sequence (Q13224 whole entry, other chains not shown): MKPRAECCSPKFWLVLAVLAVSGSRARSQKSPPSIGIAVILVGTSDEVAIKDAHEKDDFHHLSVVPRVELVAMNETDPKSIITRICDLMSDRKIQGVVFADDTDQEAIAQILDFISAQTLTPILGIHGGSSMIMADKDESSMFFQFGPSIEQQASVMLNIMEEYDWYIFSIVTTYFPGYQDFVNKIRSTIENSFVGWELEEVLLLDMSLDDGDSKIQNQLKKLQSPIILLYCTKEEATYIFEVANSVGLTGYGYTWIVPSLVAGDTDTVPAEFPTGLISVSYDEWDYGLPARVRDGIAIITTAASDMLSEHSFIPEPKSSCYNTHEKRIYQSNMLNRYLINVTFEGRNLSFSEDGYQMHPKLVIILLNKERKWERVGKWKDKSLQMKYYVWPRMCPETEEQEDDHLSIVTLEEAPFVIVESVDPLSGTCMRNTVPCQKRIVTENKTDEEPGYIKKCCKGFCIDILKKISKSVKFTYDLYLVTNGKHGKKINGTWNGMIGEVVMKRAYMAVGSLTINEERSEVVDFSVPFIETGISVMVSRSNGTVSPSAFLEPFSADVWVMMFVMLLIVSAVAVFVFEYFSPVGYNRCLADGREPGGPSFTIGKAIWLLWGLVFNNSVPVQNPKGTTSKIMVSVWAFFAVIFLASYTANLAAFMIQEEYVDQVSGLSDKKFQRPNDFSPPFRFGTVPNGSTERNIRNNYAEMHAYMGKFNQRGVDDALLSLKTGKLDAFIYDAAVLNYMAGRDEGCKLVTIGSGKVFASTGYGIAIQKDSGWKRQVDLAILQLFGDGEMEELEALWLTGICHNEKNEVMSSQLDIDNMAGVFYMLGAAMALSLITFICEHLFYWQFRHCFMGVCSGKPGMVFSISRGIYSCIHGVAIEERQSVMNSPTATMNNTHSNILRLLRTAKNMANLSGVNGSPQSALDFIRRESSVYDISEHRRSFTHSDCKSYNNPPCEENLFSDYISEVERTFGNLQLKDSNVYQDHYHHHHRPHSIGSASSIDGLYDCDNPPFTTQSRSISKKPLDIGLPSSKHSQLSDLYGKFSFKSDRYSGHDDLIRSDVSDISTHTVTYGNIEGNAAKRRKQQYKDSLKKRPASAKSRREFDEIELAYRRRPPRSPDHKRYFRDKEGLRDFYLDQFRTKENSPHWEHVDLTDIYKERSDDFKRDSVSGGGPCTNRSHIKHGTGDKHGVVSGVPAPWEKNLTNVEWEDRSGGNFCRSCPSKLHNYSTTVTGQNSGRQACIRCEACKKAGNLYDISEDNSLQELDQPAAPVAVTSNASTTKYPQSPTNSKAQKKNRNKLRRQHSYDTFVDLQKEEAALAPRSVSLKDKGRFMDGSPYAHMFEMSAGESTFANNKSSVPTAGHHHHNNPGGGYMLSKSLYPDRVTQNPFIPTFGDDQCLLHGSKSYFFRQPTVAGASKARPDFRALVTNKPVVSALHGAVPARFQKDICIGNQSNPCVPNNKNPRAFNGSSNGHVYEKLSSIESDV

Row | Ki [1] [nM] | further results | SMILES
1 | 0.6 | – | N=C(/C=C/c1ccccc1)NCc1ccccc1OC(F)(F)F
2 | 1.3 | – | COc1ccccc1C/N=C(\N)c1ccc2ccccc2c1
3 | 55 | – | N=C(NCCc1ccccc1)c1ccccc1
4 | 3.6 | – | N=C(/C=C/c1ccccc1)NCc1cccc(Cl)c1Cl
5 | 1.4 | – | N=C(/C=C/c1ccccc1)NCc1cc(Cl)cc(Cl)c1
6 | 1.9 | – | COc1cccc(C/N=C(N)/C=C/c2ccccc2)c1
7 | 93 | – | N=C(/C=C/c1ccccc1Cl)NCc1ccccc1
8 | 0.8 | – | N=C(/C=C/c1ccccc1)NCc1cccc(Cl)c1
9 | 97 | – | N=C(/C=C/c1ccccc1)NCCc1ccccc1
10 | 10000 | – | NC(=NCc1ccccc1)c1ccccc1
11 | 1.4 | – | N=C(/C=C/c1ccccc1)NCc1ccccc1C(F)(F)F
12 | 120 | – | N=C(/C=C/c1ccccc1)NCCCc1ccccc1
13 | 1.7 | – | N=C(/C=C/c1ccc(F)c(F)c1)NCc1ccccc1
14 | 0.5 | – | CCOc1ccccc1C/N=C(N)/C=C/c1ccccc1
15 | 1.6 | – | N=C(NCc1cccc(Cl)c1)c1ccc2ccccc2c1
16 | 31 | – | N=C(/C=C/c1ccccc1)NCc1cccc(C(F)(F)F)c1
17 | 2.7 | – | N=C(/C=C/c1ccccc1)NCc1cc(Cl)ccc1Cl
18 | 7.3 | – | N=C(NCc1ccccc1Cl)c1ccc2ccccc2c1
19 | 530 | – | N=C(CCc1ccccc1)NCc1ccccc1
20 | 32 | – | N=C(NCc1ccccc1)c1ccc2ccccc2c1
21 | 1 | – | N=C(/C=C/c1ccccc1)NCc1ccccc1Cl
22 | 77 | – | N=C(/C=C/c1ccccc1)NCc1ccc(Cl)cc1
23 | 10 | – | C[C@@H](CN1CCC(Cc2ccccc2)CC1)[C@@H](O)c1ccc(O)cc1
24 | 19 | – | N=C(/C=C/C1CCCCC1)NCc1ccccc1
25 | – | IC50 [2]: 70 nM; IC50 [3]: Not Active | N=C(/C=C/c1ccccc1)NCc1ccccc1
26 | 5.7 | – | N=C(/C=C/c1ccc(F)cc1)NCc1ccccc1
27 | 12 | – | N=C(/C=C/c1cccc(Cl)c1)NCc1ccccc1
28 | 52 | – | N=C(/C=C/c1ccc(Cl)cc1)NCc1ccccc1
